# Measured values reported in PubChem BioAssay AID1996.
# Details: buffer; pH 7.4; 200.0 µM
row,SMILES,solubility kinetic [µg/mL]
1,CNc1ccc(/C=C(\C#N)C(=O)Nc2ccccn2)cc1[N+](=O)[O-],2.8
2,CCOc1ccc(Nc2cc(C)c3ccccc3n2)cc1,< 0.3
3,Cc1ccc(C(=O)COC(=O)CN2C(=O)C3C4CCC(C4)C3C2=O)cc1C (stereo not given),46.2
4,CC(=O)N1CCN(CC(C)(C)NS(=O)(=O)c2ccc(C)cc2)CC1,46.6
5,O=C(CNC(=O)c1cccs1)OCc1ccc(Cl)cc1,41
6,Cc1ccc(C(=O)Nc2nc(-c3ccccn3)cs2)o1,37.1
7,Cc1cc(NC(=O)c2sc3ccccc3c2O)no1,> 41.1
8,O=C(Nc1cccc(Cl)c1)c1cnc[nH]1,> 33.2
9,CCc1cc(=O)oc2cc(OCC(=O)N3CC[C@@]4(O)CCCC[C@H]4C3)ccc12,> 57.8
10,O=C(COC(=O)COc1ccccc1F)Nc1ccc(Cl)cn1,7.6
11,O=c1[nH]c2ccc(NC(=S)Nc3ccc(F)cc3)cc2[nH]1,> 45.3
12,Cc1csc(NC(=O)COc2ccc3c(c2)CCC3)n1,6.9
13,CCOC(=O)C1CCCN(S(=O)(=O)c2ccc(NC(C)=O)cc2)C1 (stereo not given),> 53.2
14,CC(C)(C)C(O)(CC#CCN1CCCC1)c1ccccc1.Cl (stereo not given),> 48.3
15,COc1ccc(CCN=C(N)Nc2nc(C)cc(C)n2)cc1,36.5
16,COc1c(C)cccc1C(=O)NCc1ccc2c(c1)OCO2,> 44.9
17,Cc1cc(Cl)c(OCCOCCN2CCNCC2)c(Cl)c1.O=C(O)C(=O)O,62.5
18,O=C(Nc1ccccc1)OCc1cncs1,> 35.1
19,O=C(Nc1ccccc1)c1ccccc1NC(=O)c1ccccc1[N+](=O)[O-],7.5
20,Cl.Fc1ccccc1CNC1CN2CCC1CC2 (stereo not given),> 46.1
21,O=C(CNC(=O)c1ccco1)NCC(=O)OCc1ccccc1Cl,42.5
22,Clc1ccccc1Sc1ccc(-c2ccccn2)s1,< 0.7
23,CCCNC(=S)N1CCC(C(=O)c2ccc3c(c2)OCCO3)CC1,41.3
24,O=C(Nc1ccccc1C(F)(F)F)c1ccccn1,6.7

row,SMILES,solubility kinetic [µg/mL]
1,COCCCNC(=S)Nc1ccc(C)cc1[N+](=O)[O-],40.1
2,Nc1ccc(NC(=O)CCN2CCOCC2)cc1,34.8
3,Cc1cccc(S(=O)(=O)Nc2cc(Cl)ccc2N2CCOCC2)c1,3.6
4,CCN1CCC(N2CCN(c3ccc(F)cc3)CC2)CC1,35.5
5,CN=C1S/C(=C\c2ccc(Cl)cc2)C(=O)N1C,1.2
6,C=CCOc1nc(-c2ccccc2Cl)nc2ccccc12,0.7
7,NS(=O)(=O)c1ccc(Sc2ccc3ccccc3c2)nc1,2.1
8,COC(=O)c1c(C)oc(C)c1S(=O)(=O)NC(C)(C)C,> 43.4
9,O=C(COc1ccccc1)Nc1ccccc1C(=O)NC1CC1,6.4
10,Cc1ccc(SCC(=O)Nc2cc(S(=O)(=O)N3CCCCC3)ccc2C)cc1,9.9
11,Cc1cccc(C(=O)O/N=C(\N)Cc2cccc3ccccc23)c1,2.3
12,Cn1c(=O)c2[nH]c(-c3ccc(S(=O)(=O)O)cc3)nc2n(C)c1=O.O,> 53.2
13,O=C(c1ccccc1)N1CCn2c1nc1ccccc12,9.2
14,CCOC(=O)/C(=C/Nc1ccc(F)c(F)c1)[N+](=O)[O-],> 40.8
15,O=C(c1ccc([N+](=O)[O-])cc1[N+](=O)[O-])N1CCCC1,> 39.8
16,NC(=S)Nc1ccc2c(c1)OCO2,> 29.4
17,CC(C)Cn1c(SCC(=O)Nc2ccc(Cl)cc2F)nc(O)cc1=O,> 57.9
18,Cc1ccc2nsnc2c1NC(=O)Cc1ccc(Cl)cc1,0.7
19,CCCCn1c(=O)c(C(=O)Nc2ccc(C)cn2)c(O)c2ccccc21,< 0.3
20,N#Cc1ccc(CSc2nc(N)cc(=O)[nH]2)cc1,> 38.7
21,C/C(=N\NC(=O)c1ccc(Cl)cc1)c1ccccn1,> 41.1
22,Cc1cccc(C)c1OCCCn1ccnc1,20.1
23,O=C(COC(=O)CN1C(=O)c2ccccc2C1=O)Nc1ccccc1,> 50.7
24,COc1ccc(OC)c(N=C(N)N=C(N)N)c1,> 35.6

row,SMILES,solubility kinetic [µg/mL]
1,O=C(Cc1cccs1)NCc1ccc(Cl)cc1Cl,13.1
2,O=C(CC1CC2CCC1C2)NCCc1ccc(Cl)cc1 (stereo not given),29.7
3,CSc1ccccc1C(=O)OCC(=O)Nc1ccc(N2CCOCC2)cc1,9.3
4,COc1ccc(NC(=O)c2scc(S(=O)(=O)C(C)C)c2N)cc1,45.5
5,CC1CCCCN1CC(O)c1c[nH]c2ccccc12 (stereo not given),> 38.8
6,CCOc1ccc(N=C(C)C2=C(O)c3ccccc3C2=O)cc1,< 0.7
7,Cc1cc(C)nc(N/N=C/c2sccc2C)n1,> 36.9
8,Cc1csc(NC(=O)c2c(-c3ccccc3)noc2C)n1,37.4
9,O=C(O)CSCC(=O)NC1CCCc2ccccc21 (stereo not given),> 41.9
10,COCCNc1ncnc2c1nc1n2CCCC1,> 37.1
11,COc1ccc(NC(=S)NCc2ccccc2)c(OC)c1,38.8
12,O=C(NCCNC(=O)c1ccccn1)c1ccc(F)cc1,> 43.1
13,O=C(CC12CC3CC(CC(C3)C1)C2)NC1CC1,30
14,CCNC(=O)c1ccc(N(C)S(=O)(=O)c2cccs2)cc1,> 48.7
15,COc1ccc(C(=O)O/N=C(\N)c2ccccn2)cc1[N+](=O)[O-],2.6
16,Cc1cccc(NC(=O)/C(C#N)=C/c2ccccc2O)n1,20.9
17,CN1CCN(C(=O)/C=C/c2cccc(Cl)c2)CC1,> 39.7
18,CC(=O)Nc1ccc(C(=O)Nc2ccncc2)cc1,31.6
19,CCC(C)c1ccc(S(=O)(=O)Nc2cccnc2)cc1.Cl (stereo not given),35.9
20,CC1(C(=O)N2CCN(c3ccccc3)CC2)CC1(Cl)Cl (stereo not given),46.8
21,OCCNc1nc(N2CCOCC2)nc(N2CCOCC2)n1,44.7
22,Cn1c(O)c(C=NC2CCN(Cc3ccccc3)CC2)c(=O)[nH]c1=O,> 51.4
23,Cc1ccccc1CN(C)CCc1ccccn1.O=C(O)C(=O)O,25.6
24,COc1ccc(OC)c(/C=C/C(=O)Nc2ccc(OC)nc2)c1,4.7

row,SMILES,solubility kinetic [µg/mL]
1,CC1=CCC2C(=O)N(c3ccc(S(N)(=O)=O)cc3)C(=O)C2C1 (stereo not given),> 48.1
2,Cn1c(=O)c2c(ncn2CCC(=O)N/N=C/c2cccnc2)n(C)c1=O,> 53.3
3,Cn1cccc1C(=O)c1cccc([N+](=O)[O-])c1,14.3
4,Cc1cccc(-c2noc(CCCC(=O)NC3CCCCC3)n2)c1,4.5
5,Cn1c(C(=O)N[C@@H](Cc2ccccc2)C(=O)O)cc2cc(Cl)ccc21,> 53.5
6,COc1cc(-n2c(C)nc3cccnc32)c(Cl)cc1C(=O)O,> 47.7
7,Cc1ccc(-c2noc(CCCC(=O)NC3CCCCC3)n2)cc1,7.8
8,CC(=O)Nc1ccc(NC(=O)Cn2ccc([N+](=O)[O-])n2)cc1,> 45.5
9,CC(C)(C)OC(=O)N1CCC(C(=O)NCC2CCCO2)CC1 (stereo not given),> 46.9
10,CCOc1ccc(Cl)cc1S(=O)(=O)NCc1ccccn1,> 49
11,Cc1cc(C)nc(NC(=S)Nc2ccc(F)cc2F)c1,1.7
12,CC(C)(C)N(Cc1ccccc1)C(=O)c1ccncc1,> 40.3
13,O=S(=O)(Cc1cc(-c2ccccc2Cl)no1)c1ccccc1,1.8
14,CC(=O)O.CC(C)CC1NC(C(=O)O)Cc2c1[nH]c1ccccc21 (stereo not given),48.4
15,CC(C)n1c(SCC(=O)N2CCCCC2)nc2c1c(=O)n(C)c(=O)n2C,> 56.9
16,CC(=O)N1N=C(c2ccccc2)OC1c1cccnc1 (stereo not given),> 40.1
17,O=C(NC1CCN(c2ncccn2)CC1)c1ccccc1Cl,> 47.5
18,O=c1cc(CCl)nc2scc(-c3ccccc3)n12,> 41.5
19,Cc1ccc(-c2nc3ccccc3c(=O)n2O)cc1,24.1
20,O=C(Nc1ccccc1O)c1ccc([N+](=O)[O-])cc1,24.1
21,COc1ccc(CN2C(=O)COc3ccccc32)cc1,34.1
22,CCOc1ccc(NC(=O)COC(=O)CC2CCCCC2)cc1,26.6
23,CCN(CC)CCCNc1nc(C)cc(COC)c1C#N,> 43.6
24,COc1ccc(CCNC(=O)CSc2ccccn2)cc1,> 45.4

row,SMILES,solubility kinetic [µg/mL]
1,C=CCN1CCN(C(=O)c2c(-c3ccccc3)noc2C)CC1,> 46.7
2,Cn1c(=O)c2c(O)c(C=Nc3ccc(F)cc3)c(=O)n(C)c2n(C)c1=O,32.6
3,Cc1ccc(S(=O)(=O)N2CCC(C(=O)OCC(=O)NCc3cccc(Cl)c3)CC2)cc1C,11
4,Cc1ccc(C(=O)CCC(=O)NCc2ccccc2)cc1,16.9
5,COc1ccc(NCc2nc3ccccc3n2C)cc1,35
6,O=C(NC1CCS(=O)(=O)C1)c1cc(-c2ccccc2)nc2ccccc12 (stereo not given),> 55
7,CC(C)CCNC(=O)c1cc(-c2cccs2)nc2ccccc12,< 0.3
8,CSc1ccccc1NC(=O)c1ccc([N+](=O)[O-])cc1,15.9
9,O=S(=O)([O-])CCC[N+]1(CC#Cc2ccccc2)CCCCC1,> 48.2
10,CCOC(=O)c1c(C)[nH]c(C(=O)OCC(=O)NCc2ccc(C)cc2)c1C,2.6
11,Cc1cccnc1NC(=O)CCCc1c[nH]c2ccccc12,36.8
12,CCn1ncc(S(=O)(=O)Nc2cc(Cl)ccc2C)c1C,> 47.1
13,Cc1ccc(OCC(=O)N2CCN(C(=O)c3ccncc3)CC2)cc1,> 50.9
14,CC(=O)Nc1ccc(S(=O)(=O)N2CCNC(=O)C2)cc1,> 44.6
15,Cc1ccsc1C(=O)OCC(=O)N(Cc1ccccc1)C(C)C,40.2
16,O=C(NCC1CCCO1)c1cc2c(s1)CCC2 (stereo not given),> 37.7
17,CN(C)Cc1ccc(CNC(=O)COc2ccc3ccccc3c2)cc1,44.7
18,NS(=O)(=O)c1cccc(NC(=O)c2ccc(S(=O)(=O)N3CCCCCC3)cc2)c1,7.1
19,Cc1nc(N2CCOCC2)nc(Oc2ccccc2)c1[N+](=O)[O-],5.8
20,COc1ccc(CC(=O)N2CCC(c3ccccc3)C2)cc1 (stereo not given),40.8
21,CCCCN1C(=O)N(c2ccccc2Cl)C(C)(O)CC1(C)C (stereo not given),47.6
22,O=C(Nc1cccnc1)c1ccc2ccccc2c1O,36.9
23,C#CCOc1ccc(C2C(C#N)=C(N)Oc3cc(O)ccc32)cc1 (stereo not given),34.5
24,Cc1ccc(N2C(=O)C3CCC(C)(C2=O)C3(C)C)cc1C (stereo not given),32.3
